This is an account of results in article PMC6804253, “Predicting and Experimentally Validating Hot-Spot Residues at Protein–Protein Interfaces” (ACS Chemical Biology, 2019).

Assay [1] has as its system PPIs of the SKEMPI data set (by PDBID). The settings on record: ref SKEMPI, cited from earlier work; for sk_ddG_kJ (SKEMPI experimental ΔΔG) / sk_ddG_kJ (SKEMPI experimental ΔΔG, mutation to alanine): single mutation to alanine; for sk_ddG_kJ (SKEMPI experimental ΔΔG, mutation to alanine): r_group DERKH; for sk_ddG_kJ (SKEMPI experimental ΔΔG of binding, mutation to alanine): single mutation to alanine in the complex of the given PDBID.

For assay [2] the test system is unchanged. Nature of the assay: SKEMPI experimental ΔΔG, single mutations to alanine. Conditions: for sk_class: class of the SKEMPI experimental ΔΔG. In kind it is binding.
Setting [3] is: complex given by PDBID, mutation by mut_pdb.
Setting [4] is: PPI given by PDBID, sheet sortedByGroup.
Setting [5] is: class by ΔΔG threshold 4.184 kJ/mol, ref SKEMPI.
[6] abbreviates: complex by PDBID, sheet sortedByGroup.
Where [7] appears, read: class by the 4.184 kJ/mol threshold, r_group DERKH.
The mark [8] stands for this setting: Positive / Neutral / Negative by ΔΔG threshold 4.184 kJ/mol, ref SKEMPI.

Like-named read-outs stand apart in the source and are kept apart here.

Turning to 1A4Y QB12A, the “sk_ddG_kJ (SKEMPI experimental ΔΔG)” value in assay [1] (setting [3]) is 1.26 kJ. The sk_class entry in assay [2] is listed as “Neutral (neutral (little effect) 4.184 kJ/mol < ΔΔG > −4.184 kJ/mol)”.
For 1A22 RA64A, the “sk_ddG_kJ (SKEMPI experimental ΔΔG, mutation to alanine)” value in assay [1] (setting [4]) is listed as 6.69 kJ. Further, the “sk_class (class of the SKEMPI experimental ΔΔG)” value in assay [2] (setting [5]) is given as “Positive (positive (a hot residue) ΔΔG ≥ 4.184 kJ/mol)”.
Take 1A22 RA8A: the “sk_ddG_kJ (SKEMPI experimental ΔΔG, mutation to alanine)” value in assay [1] (setting [4]) is listed as 0.84 kJ. For the same substance, the “sk_class (class of the SKEMPI experimental ΔΔG)” value in assay [2] (setting [5]) is reported as “Neutral (neutral (little effect) 4.184 kJ/mol < ΔΔG > −4.184 kJ/mol)”.
Consider 1A22 QA68A, for which the “sk_ddG_kJ (SKEMPI experimental ΔΔG)” value in assay [1] (setting [3]) is given as 2.51 kJ. In addition, the sk_class result in assay [2] is reported as “Neutral (neutral (little effect) 4.184 kJ/mol < ΔΔG > −4.184 kJ/mol)”.
Consider 1A22 SA184A, for which the “sk_ddG_kJ (SKEMPI experimental ΔΔG)” value in assay [1] (setting [3]) is -0.21 kJ. Further, the sk_class result in assay [2] is “Neutral (neutral (little effect) 4.184 kJ/mol < ΔΔG > −4.184 kJ/mol)”.
1A22 RA178A: the “sk_ddG_kJ (SKEMPI experimental ΔΔG, mutation to alanine)” value in assay [1] (setting [4]) is reported as 10.04 kJ. Besides, the “sk_class (class of the SKEMPI experimental ΔΔG)” value in assay [2] (setting [5]) is “Positive (positive (a hot residue) ΔΔG ≥ 4.184 kJ/mol)”.
With 1A22 QA69A, the “sk_ddG_kJ (SKEMPI experimental ΔΔG)” value in assay [1] (setting [3]) is -0.21 kJ. Further, the sk_class entry in assay [2] is listed as “Neutral (neutral (little effect) 4.184 kJ/mol < ΔΔG > −4.184 kJ/mol)”.
Consider 1A22 QA29A, for which the “sk_ddG_kJ (SKEMPI experimental ΔΔG)” value in assay [1] (setting [3]) is on record as -2.51 kJ. Further, in assay [2], the sk_class entry is “Neutral (neutral (little effect) 4.184 kJ/mol < ΔΔG > −4.184 kJ/mol)”.
On to 1A22 CA182A, for which the “sk_ddG_kJ (SKEMPI experimental ΔΔG)” value in assay [1] (setting [3]) is 4.23 kJ. Also, the sk_class entry in assay [2] is on record as “Positive (positive (a hot residue) ΔΔG ≥ 4.184 kJ/mol)”.
For 1GC1 DC10A, in assay [1] (setting [6]), the “sk_ddG_kJ (SKEMPI experimental ΔΔG, mutation to alanine)” value is 0.00 kJ. Also, the “sk_class (class of the SKEMPI experimental ΔΔG)” value in assay [2] (setting [7]) is “Neutral (neutral (little effect) 4.184 kJ/mol < ΔΔG > −4.184 kJ/mol)”.
Turning to 1A22 DA171A, in assay [1] (setting [4]), the “sk_ddG_kJ (SKEMPI experimental ΔΔG, mutation to alanine)” value is recorded as 3.35 kJ. The “sk_class (class of the SKEMPI experimental ΔΔG)” value in assay [2] (setting [5]) is reported as “Neutral (neutral (little effect) 4.184 kJ/mol < ΔΔG > −4.184 kJ/mol)”.
In the case of 1A22 FA54A, the “sk_ddG_kJ (SKEMPI experimental ΔΔG of binding, mutation to alanine)” value in assay [1] is 3.64 kJ. Also, the “sk_class (class of the SKEMPI experimental ΔΔG)” value in assay [2] (setting [8]) is reported as “Neutral (neutral (little effect) 4.184 kJ/mol < ΔΔG > −4.184 kJ/mol)”.
Take 1GC1 VC86A: the “sk_ddG_kJ (SKEMPI experimental ΔΔG)” value in assay [1] (PPI given by PDBID, sheet sortedByGroup, r_group FAMILYVW) is on record as -0.29 kJ. The “sk_class (class of SKEMPI experimental ΔΔG)” value in assay [2] (setting [5]) is reported as “Neutral (neutral (little effect) 4.184 kJ/mol < ΔΔG > −4.184 kJ/mol)”.
As to 1A22 QA22A, the “sk_ddG_kJ (SKEMPI experimental ΔΔG)” value in assay [1] (setting [3]) is -0.84 kJ. The sk_class result in assay [2] is given as “Neutral (neutral (little effect) 4.184 kJ/mol < ΔΔG > −4.184 kJ/mol)”.
With 1A22 SA71A, the “sk_ddG_kJ (SKEMPI experimental ΔΔG)” value in assay [1] (setting [3]) is 1.72 kJ. Besides, the sk_class result in assay [2] is “Neutral (neutral (little effect) 4.184 kJ/mol < ΔΔG > −4.184 kJ/mol)”.
For 1A22 HA21A, in assay [1] (setting [4]), the “sk_ddG_kJ (SKEMPI experimental ΔΔG, mutation to alanine)” value is reported as 0.84 kJ. Also, in assay [2] (setting [5]), the “sk_class (class of the SKEMPI experimental ΔΔG)” value is recorded as “Neutral (neutral (little effect) 4.184 kJ/mol < ΔΔG > −4.184 kJ/mol)”.
Regarding 1A22 TA175A, in assay [1] (setting [3]), the “sk_ddG_kJ (SKEMPI experimental ΔΔG)” value is 8.37 kJ. Also, the sk_class result in assay [2] was “Positive (positive (a hot residue) ΔΔG ≥ 4.184 kJ/mol)”.
In the case of 1A22 FA176A, in assay [1], the “sk_ddG_kJ (SKEMPI experimental ΔΔG of binding, mutation to alanine)” value is listed as 7.95 kJ. In assay [2] (setting [8]), the “sk_class (class of the SKEMPI experimental ΔΔG)” value is reported as “Positive (positive (a hot residue) ΔΔG ≥ 4.184 kJ/mol)”.
Consider 1A22 RA16A, for which the “sk_ddG_kJ (SKEMPI experimental ΔΔG, mutation to alanine)” value in assay [1] (setting [4]) is listed as 1.00 kJ. The “sk_class (class of the SKEMPI experimental ΔΔG)” value in assay [2] (setting [5]) was “Neutral (neutral (little effect) 4.184 kJ/mol < ΔΔG > −4.184 kJ/mol)”.
With 1A22 IA58A, the “sk_ddG_kJ (SKEMPI experimental ΔΔG of binding, mutation to alanine)” value in assay [1] is reported as 6.86 kJ. In addition, the “sk_class (class of the SKEMPI experimental ΔΔG)” value in assay [2] (setting [8]) is “Positive (positive (a hot residue) ΔΔG ≥ 4.184 kJ/mol)”.
For 1A22 NA12A, the “sk_ddG_kJ (SKEMPI experimental ΔΔG)” value in assay [1] (setting [3]) is 0.42 kJ. For the same substance, the sk_class entry in assay [2] is listed as “Neutral (neutral (little effect) 4.184 kJ/mol < ΔΔG > −4.184 kJ/mol)”.
As to 1A22 QA46A, the “sk_ddG_kJ (SKEMPI experimental ΔΔG)” value in assay [1] (setting [3]) was 0.42 kJ. Also, the sk_class entry in assay [2] is listed as “Neutral (neutral (little effect) 4.184 kJ/mol < ΔΔG > −4.184 kJ/mol)”.
With 1A22 SA55A, the “sk_ddG_kJ (SKEMPI experimental ΔΔG)” value in assay [1] (setting [3]) is listed as 0.46 kJ. For the same substance, the sk_class entry in assay [2] was “Neutral (neutral (little effect) 4.184 kJ/mol < ΔΔG > −4.184 kJ/mol)”.
As to 1GC1 DC53A, in assay [1] (setting [6]), the “sk_ddG_kJ (SKEMPI experimental ΔΔG, mutation to alanine)” value is given as 1.26 kJ. In assay [2] (setting [7]), the “sk_class (class of the SKEMPI experimental ΔΔG)” value is listed as “Neutral (neutral (little effect) 4.184 kJ/mol < ΔΔG > −4.184 kJ/mol)”.
